From US10562912B2 (C&C Research Laboratories, priority 2013, dated 2020) come the findings set out here.

What all share (assay type): cell-based
For one assay, the system named is AGS. The assay is described as follows: Cell growth inhibition assay, stomach cancer cell line AGS. Particulars: Homo sapiens; AGS stomach cancer cell line, 3,000 cells/well.
Another assay relates to MDA-MB-231. The experiment in a line: Cell growth inhibition assay, breast cancer cell line MDA-MB-231. Particulars: Homo sapiens; MDA-MB-231 breast cancer cell line, 5,000 cells/well.
A further assay has as its system LNCaP. The experiment in a line: Cell growth inhibition assay, prostate cancer cell line LNCaP (medium with 10 ng/mL IL-6). Particulars: Homo sapiens, medium supplemented with 10 ng/mL of IL-6, 10,000 cells/well.
The target of the next assay is T1, STAT3 (Homo sapiens, UniProt P40763).
T1 construct: plasmid pSTAT3-TA-luc), which contains a stably operating STAT3 promoter; endogenous in cells
The assay is described as follows: STAT3 reporter gene assay (luciferase), LNCaP stable cell line (pSTAT3-TA-luc), IL-6 stimulation. The method, boiled down: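 LNCaP cells stably carrying pSTAT3-TA-luc, in RPMI1640 with 3% DCC-FBS, were treated with compound and then stimulated with 10 ng/mL IL-6 for 24–48 h at 37 °C. Luciferase activity was measured in lysates. A parallel plate measured viability by CellTiter-Glo, with stimulated 0.1% DMSO wells as the positive control.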
For orientation: Reporter assays use an easily measured gene product as a stand-in for the process of interest.

The structures appear in SMILES notation.

T1 sequence (P40763 whole entry): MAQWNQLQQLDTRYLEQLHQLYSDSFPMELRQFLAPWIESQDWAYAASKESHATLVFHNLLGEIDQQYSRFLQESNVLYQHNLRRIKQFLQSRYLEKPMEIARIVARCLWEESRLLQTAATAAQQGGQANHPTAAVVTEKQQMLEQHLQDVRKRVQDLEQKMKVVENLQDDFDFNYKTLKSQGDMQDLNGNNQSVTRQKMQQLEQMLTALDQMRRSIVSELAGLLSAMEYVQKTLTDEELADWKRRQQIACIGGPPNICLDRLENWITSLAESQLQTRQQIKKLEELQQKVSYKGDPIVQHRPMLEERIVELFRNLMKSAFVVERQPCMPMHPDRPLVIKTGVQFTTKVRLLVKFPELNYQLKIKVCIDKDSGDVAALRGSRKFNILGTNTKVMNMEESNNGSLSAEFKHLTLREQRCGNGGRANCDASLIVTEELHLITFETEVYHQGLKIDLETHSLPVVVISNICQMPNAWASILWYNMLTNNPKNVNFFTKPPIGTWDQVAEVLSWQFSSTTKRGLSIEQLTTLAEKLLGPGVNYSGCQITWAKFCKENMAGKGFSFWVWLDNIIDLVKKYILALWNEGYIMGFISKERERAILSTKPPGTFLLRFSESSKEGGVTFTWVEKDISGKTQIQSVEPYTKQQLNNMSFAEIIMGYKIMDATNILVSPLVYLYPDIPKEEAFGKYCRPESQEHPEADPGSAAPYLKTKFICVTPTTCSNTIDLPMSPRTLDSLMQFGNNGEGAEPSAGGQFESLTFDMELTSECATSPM

As usually defined, the IC50 is the concentration needed to halve the response being measured. Read a high IC50 as weaker potency in that assay. `CS(=O)(=O)Nc1ccc2c(C(=O)Nc3cccc(-c4ccc(F)cc4F)c3)c[nH]c2c1` [Example 275, N-(2′,4′-difluoro-[1,1′-biphenyl]-3-yl)-6-(methylsulfonamido)-1H-indole-3-carboxamide]: the IC50 in the assay on AGS was 5.7 µM; in the assay on MDA-MB-231, greater than 10 µM; with LNCaP, 9 µM; on STAT3 it was 3.3 µM.

On to `CS(=O)(=O)Nc1ccc2cc(C(=O)Nc3cccc(-c4cccnc4C(F)(F)F)c3)[nH]c2c1` [Example 293, 6-(methylsulfonamido)-N-(3-(2-(trifluoromethyl)pyridin-3-yl)phenyl)-1H-indole-2-carboxamide], for which the IC50 with AGS came to 24.6 µM; in the assay on MDA-MB-231, 1 µM; with LNCaP, 4.6 µM; against STAT3, 2.7 µM.

With `CS(=O)(=O)Nc1ccc2cc(C(=O)Nc3cc(C#N)cc(-c4ccc(F)cc4F)c3)[nH]c2c1` [Example 301, N-(5-cyano-2′,4′-difluoro-[1,1′-biphenyl]-3-yl)-6-(methylsulfonamido)-1H-indole-2-carboxamide], the IC50 was determined as 5.7 µM in the assay with AGS, 0.72 µM with MDA-MB-231, 3.9 µM with LNCaP and 3.3 µM against STAT3.

As to `CN(c1ccc2cc(C(=O)Nc3cc(Br)cc(-c4ccc(F)cc4F)c3)n(C)c2c1)S(C)(=O)=O` [Example 341, N-(5-bromo-2′,4′-difluoro-[1,1′-biphenyl]-3-yl)-1-methyl-6-(N-methylmethylsulfonamido)-1H-indole-2-carboxamide], the IC50 in the assay on AGS came out at 5.3 µM; in the assay on MDA-MB-231 it was 7.5 µM; with LNCaP, 6.2 µM; on STAT3, 3.3 µM.

For the compound `CN(c1ccc2cc(C(=O)Nc3cc(Br)cc(-c4ccc(F)cc4F)c3)[nH]c2c1)S(C)(=O)=O` [Example 342, N-(5-bromo-2′,4′-difluoro-[1,1′-biphenyl]-3-yl)-6-(N-methylmethylsulfonamido)-1H-indole-2-carboxamide], the IC50 was found to be 9.6 µM in the assay on AGS, 0.52 µM in the assay with MDA-MB-231, 5 µM with LNCaP and 0.39 µM against STAT3.

As for `COc1cc(NC(=O)c2cc3ccc(N(C)S(C)(=O)=O)cc3[nH]2)cc(-c2ccc(F)cc2F)c1` [Example 347, N-(2′,4′-difluoro-5-methoxy-[1,1′-biphenyl]-3-yl)-6-(N-methylmethylsulfonamido)-1H-indole-2-carboxamide], the 50% inhibitory concentration (IC50) is 19.7 µM in the assay with AGS, 0.61 µM in the assay with MDA-MB-231, 7.9 µM in the assay with LNCaP and 1.5 µM at STAT3.

With `COc1cc(NC(=O)c2cc3ccc(N(C)S(C)(=O)=O)cc3n2C)cc(-c2ccc(F)cc2F)c1` [Example 348, N-(2′,4′-difluoro-5-methoxy-[1,1′-biphenyl]-3-yl)-1-methyl-6-(N-methylmethylsulfonamido)-1H-indole-2-carboxamide], the IC50 with AGS was 4.8 µM; in the assay with MDA-MB-231, greater than 10 µM; with LNCaP it was 7.2 µM; against STAT3, greater than 10 µM.

`CS(=O)(=O)Nc1ccc2cc(C(=O)Nc3cc(OCC(F)F)cc(-c4ccc(F)cc4F)c3)[nH]c2c1` [Example 366, N-(5-(2,2-difluoroethoxy)-2′,4′-difluoro-[1,1′-biphenyl]-3-yl)-6-(methylsulfonamido)-1H-indole-2-carboxamide]: the IC50 in the assay on AGS came to 8.9 µM; in the assay on MDA-MB-231, 0.58 µM; in the assay with LNCaP, 6.2 µM; against STAT3, 1.2 µM.

On to `CC(C)COc1cc(NC(=O)c2cc3ccc(NS(C)(=O)=O)cc3[nH]2)cc(-c2ccc(F)cc2F)c1` [Example 367, N-(2′,4′-difluoro-5-isobutoxy-[1,1′-biphenyl]-3-yl)-6-(methylsulfonamido)-1H-indole-2-carboxamide], for which the concentration for half-maximal inhibition (IC50) in the assay on AGS worked out at 9.5 µM; with MDA-MB-231, 1.1 µM; in the assay with LNCaP, 7.4 µM; at STAT3, 0.38 µM.

With `CS(=O)(=O)Nc1ccc2cc(C(=O)Nc3cc(OCC#N)cc(-c4ccc(F)cc4F)c3)[nH]c2c1` [Example 368, N-(5-(cyanomethoxy)-2′,4′-difluoro-[1,1′-biphenyl]-3-yl)-6-(methylsulfonamido)-1H-indole-2-carboxamide], the IC50 turned out to be 11.5 µM with AGS, 1.7 µM in the assay with MDA-MB-231, 9.8 µM with LNCaP and 2.7 µM on STAT3.

As to `CS(=O)(=O)Nc1ccc2cc(C(=O)Nc3cccc(C(F)(F)c4cccc(C#N)c4)c3)[nH]c2c1` [Example 390, N-(3-((3-cyanophenyl)difluoromethyl)phenyl)-6-(methylsulfonamido)-1H-indole-2-carboxamide], the IC50 in the assay on AGS amounted to 9.6 µM; with MDA-MB-231, 1.1 µM; in the assay with LNCaP, 2.5 µM; on STAT3 it was 3.7 µM.

For the compound `CS(=O)(=O)Nc1ccc2cc(C(=O)Nc3cc(OCC(F)F)cc(C(F)(F)c4cccc(C#N)c4)c3)[nH]c2c1` [Example 391, N-(3-((3-cyanophenyl)difluoromethyl)-5-(2,2-difluoroethoxy)phenyl)-6-(methylsulfonamido)-1H-indole-2-carboxamide], the IC50 with AGS was 18.1 µM; in the assay on MDA-MB-231, 3.3 µM; in the assay on LNCaP, greater than 10 µM; at STAT3, 2.4 µM.

In the case of `CS(=O)(=O)Nc1ccc2cc(C(=O)Nc3cc(OCC#N)cc(C(F)(F)c4cccc(C#N)c4)c3)[nH]c2c1` [Example 393, N-(3-(cyanomethoxy)-5-((3-cyanophenyl)difluoromethyl)phenyl)-6-(methylsulfonamido)-1H-indole-2-carboxamide], the 50% inhibitory concentration (IC50) is 10.3 µM with AGS, 5 µM with MDA-MB-231, greater than 10 µM in the assay with LNCaP and greater than 10 µM on STAT3.

On to `CS(=O)(=O)Nc1ccc2cc(C(=O)Nc3cccc(S(=O)(=O)c4ccccc4)c3)[nH]c2c1` [Example 395, 6-(methylsulfonamido)-N-(3-(phenylsulfonyl)phenyl)-1H-indole-2-carboxamide], for which the IC50 with AGS is 20.6 µM; with MDA-MB-231, 4.2 µM; in the assay on LNCaP, greater than 10 µM; at STAT3, 2.1 µM.

Take `CS(=O)(=O)Nc1ccc2cc(C(=O)Nc3cccc(S(=O)(=O)c4cccc(OC(F)(F)F)c4)c3)[nH]c2c1` [Example 396]: the IC50 stood at 11.8 µM with AGS, 1.2 µM in the assay on MDA-MB-231, 8.9 µM in the assay with LNCaP and 2.5 µM against STAT3.

In the case of `COc1cc(NC(=O)c2cc3ccc(NS(C)(=O)=O)cc3[nH]2)cc(S(=O)(=O)c2cccc(OC(F)(F)F)c2)c1` [Example 397, N-(3-methoxy-5-((3-(trifluoromethoxy)phenyl)sulfonyl)phenyl)-6-(methylsulfonamido)-1H-indole-2-carboxamide], the IC50 was 8.7 µM in the assay with AGS, 2.8 µM in the assay with MDA-MB-231, 5.8 µM in the assay on LNCaP and 3 µM on STAT3.

As to `CS(=O)(=O)Nc1ccc2cc(C(=O)Nc3cc(C(F)(F)F)cc(S(=O)(=O)c4cccc(OC(F)(F)F)c4)c3)[nH]c2c1` [Example 398, 6-(methylsulfonamido)-N-(3-((3-(trifluoromethoxy)phenyl)sulfonyl)-5-(trifluoromethyl)phenyl)-1H-indole-2-carboxamide], the half-maximal inhibitory concentration (IC50) in the assay on AGS was 5.2 µM; in the assay on MDA-MB-231, 1.2 µM; with LNCaP, 2.6 µM; on STAT3 it was 1.6 µM.

For `CS(=O)(=O)Nc1ccc2cc(C(=O)Nc3cc(C#N)cc(S(=O)(=O)c4cccc(OC(F)(F)F)c4)c3)[nH]c2c1` [Example 399, N-(3-cyano-5-((3-(trifluoromethoxy)phenyl)sulfonyl)phenyl)-6-(methylsulfonamido)-1H-indole-2-carboxamide], the IC50 in the assay on AGS is 13.2 µM; in the assay on MDA-MB-231 it was 3.4 µM; with LNCaP, greater than 10 µM; against STAT3 it was 2.8 µM.

In the case of `CC(C)COc1cc(NC(=O)c2cc3ccc(NS(C)(=O)=O)cc3[nH]2)cc(S(=O)(=O)c2cccc(OC(F)(F)F)c2)c1` [Example 400, N-(3-isobutoxy-5-((3-(trifluoromethoxy)phenyl)sulfonyl)phenyl)-6-(methylsulfonamido)-1H-indole-2-carboxamide], the IC50 was 14.9 µM in the assay on AGS, 3.5 µM with MDA-MB-231, greater than 10 µM with LNCaP and 3.2 µM against STAT3.

On to `CS(=O)(=O)Nc1ccc2cc(C(=O)Nc3cc(OCC(F)F)cc(S(=O)(=O)c4cccc(OC(F)(F)F)c4)c3)[nH]c2c1` [Example 401, N-(3-(2,2-difluoroethoxy)-5-((3-(trifluoromethoxy)phenyl)sulfonyl)phenyl)-6-(methylsulfonamido)-1H-indole-2-carboxamide], for which the IC50 with AGS was 7.3 µM; with MDA-MB-231, 2.5 µM; in the assay with LNCaP, 8 µM; against STAT3 it was 4 µM.
